Earlier results on one compound are cited in PMC8481536, “Wells–Dawson phosphotungstates as mushroom tyrosinase inhibitors: a speciation study” (Scientific Reports, 2021).

For the data set, the target named is T1, AbPPO4 (Agaricus bisporus, UniProt C7FF05, S179N/V121A).
T1 construct: GST (glutathione-S-transferase) (N, cleaved yes); made in house; host or cells: E. coli BL21(DE3)
To be noted: cited from earlier work.

T1 sequence (C7FF05 1-383 V121A/S179N): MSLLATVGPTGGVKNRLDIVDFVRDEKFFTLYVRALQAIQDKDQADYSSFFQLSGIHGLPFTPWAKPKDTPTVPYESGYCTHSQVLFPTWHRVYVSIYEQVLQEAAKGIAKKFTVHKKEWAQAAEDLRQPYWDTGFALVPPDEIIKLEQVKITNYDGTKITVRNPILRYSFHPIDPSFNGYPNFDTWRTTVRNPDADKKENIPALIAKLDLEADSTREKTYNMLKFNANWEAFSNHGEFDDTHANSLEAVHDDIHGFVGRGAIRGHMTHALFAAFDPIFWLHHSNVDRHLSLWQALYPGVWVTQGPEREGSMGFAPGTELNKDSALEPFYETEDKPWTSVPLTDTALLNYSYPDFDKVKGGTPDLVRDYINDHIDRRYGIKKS

Regarding `N[C@@H](Cc1ccc(O)c(O)c1)C(=O)O` [L-DOPA, L-3,4−dihydroxyphenylalanine], the Km (commonly the substrate concentration at which the rate is half of its maximum) was 26.1 mM.
